This note sets out measurements from patent US7473669B2, “Substituted 4,5-dihydro-1,2,4-triazin-6-ones, 1,2,4-triazin-6-ones, and their use as fungicides” (priority 2005, dated 2009).

SMILES strings stand for the structures.

The subject of one series is Colletotricum lagenarium. Nature of the series: Cucumber Anthracnose greenhouse one-day protectant test. Format: in vivo. The conditions noted are these: Cucumis sativus, 24 h, cucumber plants, one-day protectant test, 200 ppm application rate; read-out: COLLLA percent control rating.
The test system of the next series is Erysiphe cichoracaerum. Kind of series: Cucumber Powdery Mildew greenhouse one-day protectant test. Particulars: 24 h, cucumber plants, one-day protectant test, 200 ppm application rate, read-out: ERYSCI percent control rating. Format: in vivo.
Another series relates to Leptosphaeria nodorum. Kind of series: Glume Blotch of Wheat greenhouse one-day protectant test. Particulars: Parastagonospora nodorum, 24 h; wheat plants, one-day protectant test, 200 ppm application rate; read-out: LEPTNO percent control rating. Type of series: in vivo.
For another series, the system named is Phytophthora infestans. Kind of series: whole plant or invertebrate. Type of series: in vivo. The conditions noted are these: in Solanum lycopersicum, 24 h, read-out: PHYTIN percent control rating, tomato plants, one-day protectant test, 200 ppm application rate.
The subject of series [1] is Puccinia recondita tritici. Kind of series: Leaf Rust of Wheat greenhouse one-day protectant test. Particulars: 24 h, wheat plants, one-day protectant test, 200 ppm application rate, read-out: PUCCRT percent control rating. Type of series: in vivo.
A further series has as its system Pyricularia oryzae. Nature of the series: whole plant or invertebrate. Format: in vivo. Particulars: 24 h, read-out: PYRIOR percent control rating.

As for `O=c1cnc(-c2cccc(Cc3ccccc3)c2)nn1CC(F)(F)F` [Compound 91, 3-(3-Benzylphenyl)-1-(2,2,2-trifluoroethyl)-1,2,4-triazin-6(1H)-one], the melting point (usually the temperature, or range, at which the solid turns liquid) was in the range of 95 to 96 °C. Further, the pest or weed control at 200 ppm in the series on Colletotricum lagenarium was in the range of 80 to 100%. Besides, the pest or weed control at 200 ppm in the series on Erysiphe cichoracaerum is 80 to 100%. Further, the pest or weed control at 200 ppm with Leptosphaeria nodorum is 80 to 100%. The pest or weed control at 200 ppm with Phytophthora infestans lay in the range of 0 to 49%. Besides, in series [1], the pest or weed control at 200 ppm lay within 80 to 100%. In addition, the pest or weed control at 200 ppm with Pyricularia oryzae lay within 80 to 100%.
In turn, `CON=C(c1ccccc1)c1cccc(-c2ncc(=O)n(CC(F)(F)F)n2)c1` [Compound 94, 3-{3-[(Z)-(Methoxyimino)phenyl)methyl]phenyl}-1-(2,2,2-trifluoroethyl)-1,2,4-triazin-6(1H)-one] came in with a melting point of 127 to 129 °C. Besides, the pest or weed control at 200 ppm with Colletotricum lagenarium fell in the range of 0 to 49%. Besides, the pest or weed control at 200 ppm with Erysiphe cichoracaerum lay within 0 to 49%. In the series on Leptosphaeria nodorum, the pest or weed control at 200 ppm fell in the range of 80 to 100%. In addition, the pest or weed control at 200 ppm in the series with Phytophthora infestans is 0 to 49%. The pest or weed control at 200 ppm in series [1] was in the range of 80 to 100%. The pest or weed control at 200 ppm in the series on Pyricularia oryzae lay within 80 to 100%.
In turn, `O=c1cnc(-c2cccc(C(=NOCc3ccccc3)c3ccccc3)c2)nn1CC(F)(F)F` [Compound 95] gave a melting point of 139 to 140 °C. In the series on Colletotricum lagenarium, the pest or weed control at 200 ppm lay in the range of 0 to 49%. Besides, in the series on Erysiphe cichoracaerum, the pest or weed control at 200 ppm lay within 0 to 49%. The pest or weed control at 200 ppm with Leptosphaeria nodorum was 50 to 79%. Also, the pest or weed control at 200 ppm with Phytophthora infestans is 0 to 49%. Besides, the pest or weed control at 200 ppm in series [1] lay in the range of 0 to 49%. Besides, in the series with Pyricularia oryzae, the pest or weed control at 200 ppm lay in the range of 80 to 100%.
Consider `C[Si](C)(C)C#CCn1nc(-c2ccc(F)c(Br)c2)ncc1=O` [Compound 96, 3-(3-bromo-4-fluorophenyl)-1-(3-trimethylsilanyl-prop-2-ynyl)-1,2,4-triazin-6(1H)-one], for which the melting point fell in the range of 103 to 105 °C. Moreover, the pest or weed control at 200 ppm in the series with Colletotricum lagenarium is 50 to 79%. Besides, in the series on Erysiphe cichoracaerum, the pest or weed control at 200 ppm is 0 to 49%. The pest or weed control at 200 ppm with Leptosphaeria nodorum lay in the range of 0 to 49%. Moreover, the pest or weed control at 200 ppm in the series with Phytophthora infestans fell in the range of 0 to 49%. Further, in series [1], the pest or weed control at 200 ppm lay in the range of 50 to 79%. The pest or weed control at 200 ppm in the series on Pyricularia oryzae is 80 to 100%.
